Experimental findings from US8901118B2, “Compounds and methods for kinase modulation, and indications therefor” (Plexxikon Inc., priority 2010, dated 2014) are described below.

For one assay, the target named is T1, BCR-FMS BaF3 cells (Homo sapiens, UniProt P07333).
T1 construct: fused on or other part: P11274 (Breakpoint cluster region protein)
T1 sequence (P07333 582-910): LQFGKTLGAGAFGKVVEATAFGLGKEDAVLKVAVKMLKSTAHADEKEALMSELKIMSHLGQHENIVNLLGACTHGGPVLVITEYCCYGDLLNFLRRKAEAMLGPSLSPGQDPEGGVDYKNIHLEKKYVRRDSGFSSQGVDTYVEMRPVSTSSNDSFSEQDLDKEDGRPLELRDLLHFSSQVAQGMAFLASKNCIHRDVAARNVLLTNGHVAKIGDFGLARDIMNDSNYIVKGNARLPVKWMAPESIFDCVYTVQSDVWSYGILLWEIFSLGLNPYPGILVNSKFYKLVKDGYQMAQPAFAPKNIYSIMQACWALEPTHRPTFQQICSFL
The assay can be described thus: BaF3 BCR-FMS cell proliferation assay (ATPlite). Format: cell-based. The conditions noted are these: read-out: Inhibition of Cell Proliferation IC50, BCR/BaF3 Fms. Here is the method: Compounds are assessed in a variety of cell based assays. For example BaF3 cells engineered with any of BCR-FMS, BCR-KIT, BCR-FLT3, BCR-NTRK1, BCR-NTRK2, and BCR-NTRK3, are used in cell proliferation assays to assess inhibitory activity of Fms, Kit, Flt-3, TrkA, TrkB, and TrkC, respectively. An MV-4-11 (leukemia) cell proliferation assay is used to assess inhibitory activity in Flt-3, and SKNSH (human neuroblastoma) cell proliferation assay is used to assess efficacy of Fms/Trk inhibitors. Additional cells may be assayed similarly to assess the efficacy of Fms/Trk inhibitors, such as MiaPaCa (human pancreatic cancer) and Capan-1 (human pancreatic carcinoma) cells. Reagent and assay conditions are as follows: • BaF3 cells: • Maintained in RPMI containing 10% FBS, 1% PenStrep, 1% NEAA, and 1% L-Glutamine, supplemented with 1 mg/mL G418 and 5% WEHI-CM (or recombinant murine IL-3). • Confluent cells are split 1:50 to 1:100 every 3-4 days. • MV-4-11 cells: • Maintained in Iscove's Modified Dulbecco's Medium containing 10% FBS. • Confluent cells are split 1:4 every 3-4 days. • SKNSH cells: RPMI containing 10% FBS. On day 1, cells are counted, then centrifuged in a conical tube for 5 minutes at 1000 rpm. The supernatant is removed and cells are re-suspended as follows: • BaF3: resuspend in growth media +1 mg/mL G418 (without WEHFIL-3) to 2×10^5 cells/mL. • MV-4-11: resuspend in growth media to 5×10^5 cells/mL. • SKNSH: resuspend in growth media to 2×10^4 cells/mL. The cells are plated (50 μL, 150 μL for SKNSH cells) in each well of a 96-well dish (Corning 3610) and incubated at 37° C. in 5% CO2 overnight, cells plated to a final concentration of cells as follows: • BaF3: 10,000 cells per well. • MV-4-11: 25,000 cells per well. • SKNSH: 3,000 cells per well. On day 2, compound at a maximum concentration of 5 mM is serially diluted 1:3 for a total of 8 point titration with DMSO as a control. A 1 μL aliquot of each dilution point is added to 249 μL growth media and 50 μL is added to a well containing cells, providing 10 μM compound for the maximum concentration point. The cells are incubated for 3 days at 37° C. in 5% CO2. For SKNSH cells, a 0.75 μL aliquot of appropriate dilution in DMSO is added to 150 μL of cells. On day 5, ATPlite 1 step Luminescence Assay System (Perkin Elmer #6016739) is brought to room temperature along with the cell cultures. ATPlite is added to each well as follows: • BaF3: 25 μL per well. • MV-4-11: 40 μL per well. • SKNSH: 20 μL per well. The cells are incubated at room temperature for 10 minutes, then luminescence is read on Safire reader. The measured luminescence correlates directly with cell number, such that the reading as a function of compound concentration is used to determine the IC50 value.
It is understood that the results of these assays may vary as assay conditions are varied. Inhibition levels determined under the conditions described herein represent a relative activity for the compounds tested under the specific conditions employed. The cell based assays are likely to show variability due to the complexity of the system and the sensitivity thereof to any changes in the assay conditions. […] Results for compounds that are tested and show substantially no inhibition below the highest tested concentration are represented as “-” in the tables below. In some instances, the compounds were not tested in all of the assays, or assay results were not valid, as indicated by NA in the tables below.

Another assay concerns the target CYP2C19 (Homo sapiens, UniProt P33261). The assay can be described thus: CYP2C19 inhibition (fluorescent substrate CEC). Type of assay: in vitro ADME. The conditions noted are these: read-out: Cyp IC50 2C19. Here is the method: (§1) CYP (Cytochrome P450) enzymes are the major drug metabolizing enzymes present in the liver. The inhibition of CYP enzyme activity (IC50) for each of CYP1A2, CYP2C19, CYP2C9, CYP2D6, CYP3A4(BFC) and CYP3A4(BQ) is determined for compounds, where inhibition of metabolism of a known substrate leads to a decrease in the fluorescence of the metabolized product. The fluorescence of the product is monitored as a function of compound concentration. Compounds are dissolved in DMSO to a concentration of 100 mM. These are diluted 1 μL into 82 μL of acetonitrile. An 11 μL aliquot of this solution is then added to 204 μL of cofactor mix (1.3% NADPH Regeneration system Solution A, 1.04% NADPH Regeneration system Solution B from BD Biosciences, 5% acetonitrile and 0.05% DMSO). These are then serially diluted 1:1 (160 μL to 160 μL co-factor mix) for a total of 10 points. A 10 μL aliquot of this final mixture is dispensed into 384 well assay plates and incubated for 10 minutes at 37° C. […] Assay plates are incubated at 37° C. (CYP1A2-15 min; CYP2C9-45 min; CYP2C19, 2D6 and 3A4-30 min) and read in a Tecan Safire 2 plate reader (CYP1A2, 2C19 and 3A4 409 ex/460 em; CYP2C9 and 2D6 409 ex/530 em). The signal versus compound concentration is used to determine the IC50. The enzymes and substrates for this assay are obtained from BD Biosciences.

The target of another assay is CYP2C9 (Homo sapiens, UniProt P11712). The assay can be described thus: CYP2C9 inhibition (fluorescent substrate MFC). Type of assay: in vitro ADME. Particulars: read-out: Cyp IC50 2C9. Here is the method: as §1
Sequence of CYP2C9 (P11712 whole entry): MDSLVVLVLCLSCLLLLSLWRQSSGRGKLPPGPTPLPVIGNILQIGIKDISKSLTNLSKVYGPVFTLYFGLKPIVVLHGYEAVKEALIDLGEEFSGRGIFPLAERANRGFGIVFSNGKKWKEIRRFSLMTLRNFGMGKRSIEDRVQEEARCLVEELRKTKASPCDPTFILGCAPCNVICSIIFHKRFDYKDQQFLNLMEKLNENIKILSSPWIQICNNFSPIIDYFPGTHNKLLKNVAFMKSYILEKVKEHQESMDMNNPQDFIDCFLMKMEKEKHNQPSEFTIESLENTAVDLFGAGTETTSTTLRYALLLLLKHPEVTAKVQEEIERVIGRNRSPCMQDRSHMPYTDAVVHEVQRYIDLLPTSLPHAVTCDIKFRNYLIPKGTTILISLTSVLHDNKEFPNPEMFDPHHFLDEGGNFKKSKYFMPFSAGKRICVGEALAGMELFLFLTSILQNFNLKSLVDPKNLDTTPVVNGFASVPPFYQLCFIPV

Sequence of CYP2C19 (P33261 whole entry): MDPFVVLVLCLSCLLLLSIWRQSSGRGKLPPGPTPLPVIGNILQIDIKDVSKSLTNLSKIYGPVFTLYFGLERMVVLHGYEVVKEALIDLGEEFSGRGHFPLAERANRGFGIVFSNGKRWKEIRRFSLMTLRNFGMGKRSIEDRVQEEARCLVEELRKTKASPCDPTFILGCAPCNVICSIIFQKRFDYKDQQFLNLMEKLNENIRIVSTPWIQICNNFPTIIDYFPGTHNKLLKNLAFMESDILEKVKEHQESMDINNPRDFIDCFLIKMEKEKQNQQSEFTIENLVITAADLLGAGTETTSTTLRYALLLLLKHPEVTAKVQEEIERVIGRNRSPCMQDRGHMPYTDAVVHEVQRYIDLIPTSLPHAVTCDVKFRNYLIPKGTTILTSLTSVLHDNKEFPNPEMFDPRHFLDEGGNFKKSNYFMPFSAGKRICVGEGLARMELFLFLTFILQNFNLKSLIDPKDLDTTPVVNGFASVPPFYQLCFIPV

As to `CC1CCC(Nc2ncc(Cc3c[nH]c4ncc(Cl)cc34)cn2)CC1` (stereo not drawn) [Compound P-3009, [5-(5-Chloro-1H-pyrrolo[2,3-b]pyridin-3-ylmethyl)-pyrimidin-2-yl]-(4-methyl-cyclohexyl)-amine], the IC50 is below 1 µM on BCR-FMS BaF3 cells, below 5 µM at CYP2C19 and above 10 µM at CYP2C9.
In the same order, the values of `Cc1cnc2[nH]cc(Cc3cnc(Nc4ccc(F)cc4)nc3)c2c1` [Compound P-3010, (4-Fluoro-phenyl)-[5-(5-methyl-1H-pyrrolo[2,3-b]pyridin-3-ylmethyl)-pyrimidin-2-yl]-amine] are below 0.1 µM, above 10 µM and above 10 µM.
In the same order, the values of `Clc1ccc(Nc2ncc(Cc3c[nH]c4ncc(Cl)cc34)cn2)cc1` [Compound P-3011, (4-Chloro-phenyl)-[5-(5-chloro-1H-pyrrolo[2,3-b]pyridin-3-ylmethyl)-pyrimidin-2-yl]-amine] are below 0.1 µM, above 10 µM and above 10 µM.
With `Fc1ccc(Nc2ncc(Cc3c[nH]c4ncc(Cl)cc34)cn2)cc1` [Compound P-3012, [5-(5-Chloro-1H-pyrrolo[2,3-b]pyridin-3-ylmethyl)-pyrimidin-2-yl]-(4-fluoro-phenyl)-amine], the IC50 is below 0.1 µM on BCR-FMS BaF3 cells, above 10 µM at CYP2C19 and above 10 µM on CYP2C9.
`Fc1nc(NC2CCC(F)(F)CC2)ccc1Cc1c[nH]c2ncc(Cl)cc12` [Compound P-3013, [5-(5-Chloro-1H-pyrrolo[2,3-b]pyridin-3-ylmethyl)-6-fluoro-pyridin-2-yl]-(4,4-difluoro-cyclohexyl)-amine]: the IC50 on BCR-FMS BaF3 cells was below 0.1 µM; on CYP2C19, below 5 µM; at CYP2C9, above 10 µM.
With `Fc1ccccc1Nc1ncc(Cc2c[nH]c3ncc(Cl)cc23)cn1` [Compound P-3014, [5-(5-Chloro-1H-pyrrolo[2,3-b]pyridin-3-ylmethyl)-pyrimidin-2-yl]-(2-fluoro-phenyl)-amine], the IC50 at BCR-FMS BaF3 cells was below 0.1 µM.
Take `Clc1cnc2[nH]cc(Cc3cnc(Nc4ccccc4Cl)nc3)c2c1` [Compound P-3015, (2-Chloro-phenyl)-[5-(5-chloro-1H-pyrrolo[2,3-b]pyridin-3-ylmethyl)-pyrimidin-2-yl]-amine]: the IC50 at BCR-FMS BaF3 cells was below 1 µM.
For the compound `COc1ccc(Nc2ccc(C(=O)c3c[nH]c4ncnc(NC(C)(C)C)c34)c(F)n2)cn1` [Compound P-4055, [4-(tert-butylamino)-7H-pyrrolo[2,3-d]pyrimidin-5-yl]-[2-fluoro-6-[(6-methoxy-3-pyridyl)amino]-3-pyridyl]methanone], the IC50 on BCR-FMS BaF3 cells is below 1 µM; on CYP2C19 it was below 10 µM; at CYP2C9, above 10 µM.
Take `COc1ccc(Nc2ccc(C(=O)c3c[nH]c4ncnc(NC5CCC(F)(F)CC5)c34)c(F)n2)cn1` [Compound P-4056, [4-[(4,4-difluorocyclohexyl)amino]-7H-pyrrolo[2,3-d]pyrimidin-5-yl]-[2-fluoro-6-[(6-methoxy-3-pyridyl)amino]-3-pyridyl]methanone]: the results for the IC50 on BCR-FMS BaF3 cells, at CYP2C19 and on CYP2C9 were below 1 µM, 5 to 20 µM and above 10 µM, respectively.
`O=C(c1ccc(NC2CCC(F)(F)CC2)nc1Cl)c1c[nH]c2ncnc(NCC(F)(F)F)c12` [Compound P-4057, [2-chloro-6-[(4,4-difluorocyclohexyl)amino]-3-pyridyl]-[4-(2,2,2-trifluoroethylamino)-7H-pyrrolo[2,3-d]pyrimidin-5-yl]methanone]: the IC50 at BCR-FMS BaF3 cells was below 1 µM; on CYP2C19, above 10 µM; at CYP2C9 it was above 10 µM.
Take `CNc1ncnc2[nH]cc(C(=O)c3ccc(NC4CCC(F)(F)CC4)nc3Cl)c12` [Compound P-4058, [2-chloro-6-[(4,4-difluorocyclohexyl)amino]-3-pyridyl]-[4-(methylamino)-7H-pyrrolo[2,3-d]pyrimidin-5-yl]methanone]: the figures for the IC50 at BCR-FMS BaF3 cells, on CYP2C19 and on CYP2C9 were below 0.1 µM, above 10 µM and above 10 µM, respectively.
`O=C(c1ccc(NC2CCC(F)(F)CC2)nc1Cl)c1c[nH]c2ncnc(NC3CC3)c12` [Compound P-4059, [2-chloro-6-[(4,4-difluorocyclohexyl)amino]-3-pyridyl]-[4-(cyclopropylamino)-7H-pyrrolo[2,3-d]pyrimidin-5-yl]methanone]: the IC50 at BCR-FMS BaF3 cells is below 0.1 µM; on CYP2C19, above 10 µM; at CYP2C9, 5 to 10 µM.
The like results for `CCNc1ncnc2[nH]cc(C(=O)c3ccc(Nc4ccc(C5CC5)nc4)nc3F)c12` [Compound P-4060, [6-[(6-cyclopropyl-3-pyridyl)amino]-2-fluoro-3-pyridyl]-[4-(ethylamino)-7H-pyrrolo[2,3-d]pyrimidin-5-yl]methanone] were, in that order, below 0.01 µM, above 10 µM and above 10 µM.
In the same order, the values of `O=C(c1ccc(NC2CCC(F)(F)CC2)nc1F)c1c[nH]c2ncnc(NCC(F)(F)F)c12` [Compound P-4061, [6-[(4,4-difluorocyclohexyl)amino]-2-fluoro-3-pyridyl]-[4-(2,2,2-trifluoroethylamino)-7H-pyrrolo[2,3-d]pyrimidin-5-yl]methanone] are below 0.1 µM, above 10 µM and above 10 µM.
As for `O=C(c1ccc(NC2CCC(F)(F)CC2)nc1F)c1c[nH]c2ncnc(NC3CC3)c12` [Compound P-4062, [4-(cyclopropylamino)-7H-pyrrolo[2,3-d]pyrimidin-5-yl]-[6-[(4,4-difluorocyclohexyl)amino]-2-fluoro-3-pyridyl]methanone], the IC50 is below 0.1 µM on BCR-FMS BaF3 cells, above 10 µM at CYP2C19 and above 10 µM on CYP2C9.
With `CNc1ncnc2[nH]cc(C(=O)c3ccc(Nc4ccc(OC)nc4)nc3OC)c12` [Compound P-4085, [2-methoxy-6-[(6-methoxy-3-pyridyl)amino]-3-pyridyl]-[4-(methylamino)-7H-pyrrolo[2,3-d]pyrimidin-5-yl]methanone], the IC50 on BCR-FMS BaF3 cells is below 1 µM.
